# Laboratory results as given in patent US10730886B2, “Compound having effect of inhibiting platelet aggregation and salt thereof, and composition for preventing or treating thrombotic diseases, containing same” (SHIN POONG PHARMACEUTICAL CO., LTD., priority 2015, dated 2020).
# Like-named read-outs stand apart in the source and are kept apart here.
# Tests used:
# plasma [1] = test: Plasma coagulation time, Prothrombin Time (PT); assay type: biochemical; settings: plasma treated 3 minutes
# Experimental: (§1) In order to separate plasma, blood was collected with 3.2% sodium citrate as an anticoagulant. Whole blood was centrifuged at 2000 g for 20 minutes to obtain plasma. After treating the plasma with the test substances for 3 minutes, plasma coagulation time was measured. For plasma coagulation time, Activated Partial Thromboplastin Time (aPTT) and Prothrombin Time (PT) were measured using BBL® Fibrometer (Becton Dickinson, Cockeysville, Md.). For measurement of aPTT, the plasma was treated with aPTT reagents in fibrometer cup and reacted at 37° C. for 3 min. After the reaction, CaCl2 was added and blood coagulation time was measured immediately. For the measurement of PT, PT reagent was added to warmed plasma, and blood coagulation time was measured immediately. DTI, known to prolong plasma coagulation time, was used as a control.
# [2] = test system: thrombin-induced platelet aggregation, Human PRP; test: Thrombin-induced platelet aggregation in human PRP (lumi-aggregometer); assay type: cell-based; settings: thrombin 0.6-0.8 U/ml;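 note: aggregation recorded for 5 min after thrombin addition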
# Experimental: To investigate whether the candidate substance has inhibition selectivity for shear-stress-induced platelet aggregation, which is by a physical stimulus, […] experiment was conducted by activating platelets with physiological agonists—i.e., thrombin, collagen and ADP—to study the inhibitory effect of the candidate substance.
# Human PRP (598.8 μl) was treated with 1.2 μl of the candidate substance per concentration (25, 100, 250 μM) and reacted at 37° C. for 3 minutes using a thermomixer. Then, PRP (495 μl) was put in the aggregometer cuvette and preincubated for 1 minute, followed by treatment with platelet aggregation-inducing reagent, thrombin (0.6-0.8 U/ml), collagen (2-5 μg/ml), or ADP (adenosine diphosphate, 15-20 μM) at the minimum concentration causing maximum aggregation. The degree of aggregation of the platelets was measured by a turbidity change using a lumi-aggregometer (Chrono-Log Co., USA). The turbidity of the PRP was considered as 0%, and the turbidity of the PPP was considered as 100%. During the measurement, the reaction mixture was continuously stirred at 1,000 rpm with a silicone-coated magnetic stir bar.
# [3] = test system: carotid artery shear stress model; test: Carotid artery shear stress model, amount of thrombus; assay type: in vivo, Sprague-Dawley rats; settings: rat
# Experimental: Vehicle (0.5% methylcellulose), clopidogrel (8 mg/kg), aspirin (50 mg/kg) or a candidate substance was orally administered to male Sprague-Dawley rats (250 to 300 g). 2 hours after administration, the rats were anesthetized by ketamine/rompun (ketamine/xylazine) cocktail 0.1 ml/100 g. Except for the normal control group, the right cervical skin of the experimental animals was incised to expose the common carotid artery. A surgical tube with a length of 1 mm and an inside diameter of 0.58 mm was inserted into the exposed carotid artery and tied with a single thread. The exposed site and the operation site were treated with an anti-adhesion agent, and then sutured for the animals to recover. After the surgery, vehicle, clopidogrel, aspirin or a candidate substance was orally administered to the rats twice a day for 3 days. On the fourth day, 2 hours after the final administration, urethane (100 mg/300 μl/100 g) was administered intraperitoneally to the rats to induce anesthesia, and the operation site was opened to separate a total of 1 cm of the blood vessel, 5 mm above and 5 mm below the surgical tube. The separated blood vessel was perfused with 0.2 ml of 0.9% saline at 0.3 ml/min to remove the remaining blood, and then maintained in 1 ml of protein lysis buffer (NaOH 2 g, Na2CO3 0.1 g in 500 ml D.W). After collected, the blood vessel thrombus was double-boiled in boiling water together with the protein lysis buffer. 200 μl of the reaction solution (10 ml bicinchoninic acid solution+200 μl 4% aqueous solution of copper sulfate) was added to 10 μl of the heated thrombus, and the mixture was reacted at 37° C. for 30 minutes and quantified with an ELISA reader (562 nm).
# [4] = test system: Human Platelet Rich Plasma (PRP); test: Shear stress-induced platelet aggregation inhibition in human platelet rich plasma (PRP), cone-plate viscometer; assay type: cell-based; settings: for inhibition at 25 µM: Homo sapiens, Platelet
# Experimental: 1-1. Measurement of Platelet Aggregation Inhibitory Effect Using Human Platelet Rich Plasma (PRP)
# Blood was collected from the veins of healthy male volunteers who had not taken any medication for more than 2 weeks. All related studies were conducted under the approval of the Seoul National University Institutional Review Board (IRB No. 1305/001-016). During the whole process of study the use of glass containers or glass pipettes was avoided, and the experiments were performed at room temperature. To separate platelet rich plasma (PRP), the blood was collected with 3.2% sodium citrate as an anticoagulant. The whole blood was centrifuged at 150 g for 15 minutes to obtain the supernatant (PRP), and the residue was centrifuged at 2,000 g for 20 minutes to obtain platelet poor plasma (PPP). The number of platelets of the PRP thus obtained was counted with an optical microscope using a hemacytometer. PRP was diluted with PPP so as to include 3×10^8 platelets per 1 ml, and then used in the experiments. PRP was put on a cone-plate viscometer (RotoVisco 1, Thermo Fischer Scientific, USA), and shear stress was applied to the PRP at 37° C. for 3 minutes at a shear rate of 10,800 s^−1. In order to evaluate candidate substances, prior to the induction of platelet aggregation, 598.8 μl of PRP was treated with 1.2 μl of 25 μM candidate substance and incubated at 37° C. for 3 minutes using a thermomixer. After applying the shear stress, 20 μl of PRP was fixed in 280 μl of a suspension buffer containing 0.5% glutaraldehyde (134 mM NaCl, 2.9 mM KCl, 1.0 mM MgCl2.6H2O, 10.0 mM HEPES, 5.0 mM dextrose, 12.0 mM NaHCO3, 0.34 mM Na2HPO4, 0.3% BSA, pH 7.4). Then, the number of single platelets in the suspension was counted using a hemacytometer. The degree of inhibition by the candidate substance was calculated according to the following formula (1). The degree of inhibition was determined by the method described below. No shear stress-applied group served as a control, and only shear stress-applied group served as positive control. Degree of inhibition (%)=[(1−A/B)×100]/[(1−A/C)×100] Formula 1
# A: Number of single platelets in the shear stress-applied sample after treatment with candidate substance
# B: Number of single platelets in the control group with no shear stress applied
# C: Number of single platelets in the positive control group with only shear stress applied
# plasma [5] = test: Plasma coagulation time, Activated Partial Thromboplastin Time (aPTT); assay type: biochemical; settings: plasma treated 3 minutes
# Experimental: as §1
structure (smiles),measurement,setting,value
"O=C(c1cc(O)ccc1O)N1CCC(c2noc3ccc(F)cc23)CC1 [Example 23, (2,5-Dihydroxyphenyl)(4-(5-fluorobenzo[d]isoxazol-3-yl)piperidin-1-yl)methanone]","plasma coagulation time - PT, Time",plasma [1]; 25 μM,10.3 ± 0.1 s
same,"plasma coagulation time - PT, Time",plasma [1]; 100 μM,10.7 ± 0.2 s
same,"plasma coagulation time - PT, Time",plasma [1]; 250 μM,10.8 ± 0.3 s
same,"Degree of platelet aggregation (%, Mean ± SEM)",[2]; 25 μM,96.0 ± 4.0%
same,"Degree of platelet aggregation (%, Mean ± SEM)",[2]; 100 μM,88.5 ± 6.5%
same,"Degree of platelet aggregation (%, Mean ± SEM)",[2]; 250 μM,93.5 ± 1.5%
same,"Amount of thrombus (mg, Mean ± SEM)","[3]; 25 mg/kg oral, twice a day for 3 days after operation",0.071 ± 0.006 mg
same,shear stress-induced thrombogenesis compared with the control group,[3]; oral,"significantly, remarkably inhibited"
same,inhibition at 25 µM,"[4]; 0.05 h, human PRP, 25 μM, shear rate 10,800 s^-1, 3 min, read-out: Degree of inhibition (%, Mean ± SEM)",20 to 30%
same,inhibition at 25 µM,"[4]; Table 1 summary bins, concentration and matrix not given, read-out: Inhibitory effect of shear stress-induced platelet aggregation",20 to 30%
same,"Degree of inhibition (%, Mean ± SEM)","[4]; human PRP, 25 μM, shear rate 10,800 s^-1, 3 min",28 ± 3%
same,"plasma coagulation time - aPTT, Time",plasma [5]; 25 μM,26.2 ± 0.2 s
same,"plasma coagulation time - aPTT, Time",plasma [5]; 100 μM,29.5 ± 1.2 s
same,"plasma coagulation time - aPTT, Time",plasma [5]; 250 μM,26.1 ± 0.2 s
